Like-named read-outs stand apart in the source and are kept apart here. Square brackets hold non-standard residues; d marks the D form. Peptide text beside a SMILES is read from it. dPhe(4-Cl) = N[C@H](Cc1ccc(Cl)cc1)C(=O)O; d2Nal = N[C@H](Cc1ccc2ccccc2c1)C(=O)O; dCit = NC(=O)NCCC[C@@H](N)C(=O)O; d3Pal = N[C@H](Cc1cccnc1)C(=O)O
Assays:
[1] = system: cancer cell lines, DetermaIO classes; test: Association of PRISM compound sensitivity with DetermaIO (DTIO) cell line classes; assay type: cell-based
[2] = system: cancer cell lines classified IM, MSL, M; test: PRISM screen compound sensitivity correlated with IM, MSL and M subtype of cell lines (101 gene signature); assay type: cell-based; conditions: for TNBCType train: 101 gene signature
[3] = correlation of PRISM compound sensitivity with DTIO; test cell set
[4] = correlation of PRISM compound sensitivity with DTIO; training cell set
[5] = correlation of compound sensitivity with DetermaIO (DTIO), test set
[6] = correlation of compound sensitivity with DetermaIO (DTIO), training set
[7] = correlation of compound sensitivity with DetermaIO (DTIO); test set
[8] = correlation of compound sensitivity with DetermaIO (DTIO); training set
[9] = correlation of PRISM compound sensitivity with IM subtype correlation, test cell set
[10] = correlation of PRISM compound sensitivity with M subtype correlation, test cell set
[11] = correlation of PRISM compound sensitivity with MSL subtype correlation, test cell set
[12] = correlation of PRISM compound sensitivity with DTIO (DetermaIO); test cell set (188 cell lines)
[13] = correlation of PRISM compound sensitivity with DTIO (DetermaIO); training cell set (371 cell lines)
[14] = correlation of PRISM compound sensitivity with IM subtype correlation, test cell set (188 cell lines)
[15] = correlation of PRISM compound sensitivity with M subtype correlation, test cell set (188 cell lines)
[16] = correlation of PRISM compound sensitivity with MSL subtype correlation, test cell set (188 cell lines)
[17] = subtype (IM, MSL or M) assigned to the compound by negative correlation of PRISM sensitivity with subtype, training cell set (371 cell lines)
[18] = correlation of PRISM compound sensitivity with DTIO; test cell set (188 cell lines)
[19] = correlation of PRISM compound sensitivity with DTIO; training cell set (371 cell lines)
[20] = subtype (IM, MSL or M) the PRISM compound sensitivity is associated with, training cell set (371 cell lines)
[21] = subtype (IM, MSL or M) with which compound sensitivity is negatively correlated, training cell set (371 cell lines)

SMILES | DTIO Corr test [1, 3] | DTIO Corr train [1, 4] | IM Corr test [2, 14] | M Corr test [2, 15] | MSL Corr test [2, 16] | other results
N#Cc1c(Oc2ccc(F)c(NC(=O)Cc3cccc(C(F)(F)F)c3)c2)ccc2nc(NC(=O)C3CC3)sc12 [TAK-632] | 0.2089 | 0.08489 |  |  |  | DTIO Corr test [1, 5]: 0.2089; DTIO Corr train [1, 6]: 0.08489; DTIO Corr test [1, 7]: 0.2089; DTIO Corr train [1, 8]: 0.08489; IM Corr test [2, 9]: 0.3042; M Corr test [2, 10]: −0.2709; MSL Corr test [2, 11]: 0.04709
Cc1cc(OCCCS(C)(=O)=O)cc(C)c1-c1cccc(COc2ccc3c(c2)OC[C@H]3CC(=O)O)c1 [TAK-875] |  |  | 0.00946 | −0.00346 | −0.00217 | DTIO Corr test [1, 12]: −0.03291; DTIO Corr train [1, 13]: 0.03182; TNBCType train [2, 17]: MSL
CCN1/C(=C/C(C)=O)Sc2ccc(OC)cc21 [TG-003] |  |  | −0.1049 | 0.03396 | −0.1032 | DTIO Corr test [1, 18]: −0.05387; DTIO Corr train [1, 19]: −0.04255; TNBCType train [2, 20]: MSL
Cc1cc(-c2cc(O)ccc2Cl)cc2nnc(Nc3ccc(OCCN4CCCC4)cc3)nc12 [TG-100572] | 0.03221 | 0.09048 | 0.01392 | −0.05751 | −0.04088 | TNBCType train [2, 21]: MSL
Nc1cccc(-c2cc3c(Oc4cccc(O)c4)ncnc3[nH]2)c1 [TWS-119] |  |  | −0.02666 | 0.00573 | 0.1335 | DTIO Corr test [1, 18]: −0.03964; DTIO Corr train [1, 19]: −0.1606
CC(C)C(=O)c1ccc(O)c(O)c1 [U-0521] | −0.01537 | −0.1115 | −0.0012 | 0.02749 | 0.06256 | 
c1ccc(C(NCc2cccnc2)(c2ccccc2)c2ccccc2)cc1 [UCL-2077] | −0.07511 | −0.2006 |  |  |  | IM Corr test [2, 9]: −0.1051; M Corr test [2, 10]: 0.08781; MSL Corr test [2, 11]: 0.1128
CCCN(CCC)[C@@H]1CCc2c(OC)cccc2[C@@H]1C [UH-232-(+)] |  |  | −0.1006 | 0.08495 | 0.1169 | DTIO Corr test [1, 12]: −0.1146; DTIO Corr train [1, 13]: −0.08225
CN(C)CCN1C(=O)c2cccc3cc(NC(N)=O)cc(c23)C1=O [UNBS-5162] | 0.09148 | 0.09844 |  |  |  | DTIO Corr test [1, 7]: 0.09148; DTIO Corr train [1, 8]: 0.09844; IM Corr test [2, 9]: 0.1623; M Corr test [2, 10]: −0.2029; MSL Corr test [2, 11]: −0.03433
COc1cc2c(NC3CCN(CC4CCCCC4)CC3)nc(N3CCCN(C(C)C)CC3)nc2cc1OCCCN1CCCCC1 [UNC0631] | 0.163 | 0.1055 | 0.2168 | −0.3256 | −0.09072 | DTIO Corr test [1, 5]: 0.163; DTIO Corr train [1, 6]: 0.1055
COc1cc2c(NC3CCN(C(C)C)CC3)nc(C3CCCCC3)nc2cc1OCCCN1CCCC1 [UNC0638] |  |  | −0.1264 | 0.1332 | 0.1697 | DTIO Corr test [1, 12]: −0.08839; DTIO Corr train [1, 13]: −0.07586
COc1ccc(CN2C(=O)C(=O)c3cc(OC(F)(F)F)ccc32)cc1 [VU0238429] | −0.02333 | −0.07773 |  |  |  | IM Corr test [2, 9]: 0.04415; M Corr test [2, 10]: −0.1868; MSL Corr test [2, 11]: −0.1511
Cc1cc(C)c(N(Cc2ccccc2)S(=O)(=O)c2ccc(OCCNC(=O)c3cc4ccccc4o3)cc2)c(C(=O)NO)c1 [WAY-170523] | 0.02955 | 0.0516 |  |  |  | IM Corr test [2, 9]: −0.0044; M Corr test [2, 10]: −0.01887; MSL Corr test [2, 11]: −0.04718; TNBCType train ([2]; subtype (IM, MSL or M) with which PRISM compound sensitivity is negatively correlated, training cell set): MSL
COc1cc2ncnc(Nc3ccc(O)c(Br)c3)c2cc1OC [WHI-P154] | −0.06543 | −0.1245 | −0.227 | 0.2466 | 0.2152 | 
C=CC(=O)Nc1cccc(Sc2nc(Nc3ccc(N4CCN(C)CC4)cc3)ncc2Cl)c1 [WZ8040] |  |  | −0.07504 | 0.1805 | 0.2895 | DTIO Corr test [1, 12]: 0.0423; DTIO Corr train [1, 13]: −0.1387
C[C@@H](N)c1ccc(C(=O)Nc2ccnc3[nH]ccc23)cc1 [Y-39983] |  |  | 0.05616 | −0.1022 | −0.1761 | DTIO Corr test [1, 12]: −0.02374; DTIO Corr train [1, 13]: −0.00611
Cc1cccc(NC(=O)N[C@@H]2N=C(c3ccccc3)c3ccccc3N(CC(=O)c3ccccc3C)C2=O)c1 [YM022] | −0.00858 | 0.03884 | −0.00497 | −0.05702 | −0.08788 | 
C[C@@H]1CN(Cc2ccc(F)cc2)CCN1C(=O)COc1ccc(Cl)cc1NC(N)=O.Cl [ZK811752] |  |  | 0.1095 | −0.08132 | −0.00448 | DTIO Corr test [1, 12]: 0.04281; DTIO Corr train [1, 13]: 0.09953
CC1(C)[C@@H](O[C@H]2O[C@H](C(=O)O)[C@@H](O)[C@H](O)[C@H]2O[C@@H]2O[C@H](C(=O)O)[C@@H](O)[C@H](O)[C@H]2O)CC[C@]2(C)[C@H]3C(=O)C=C4[C@@H]5C[C@@](C)(C(=O)O)CC[C@]5(C)CC[C@@]4(C)[C@]3(C)CC[C@@H]12 [ammonium-glycyrrhizinate] | −0.07896 | −0.06692 | −0.02605 | 0.0501 | 0.0971 | 
CC(=O)OC[C@]12CCC(C)=C[C@H]1O[C@@H]1[C@H](O)[C@@H](OC(C)=O)[C@@]2(C)[C@]12CO2 [anguidine] |  |  |  |  |  | DTIO Corr test [1]: −0.124; DTIO Corr train [1]: −0.1638; IM Corr test [2]: −0.1066; M Corr test [2]: 0.09713; MSL Corr test [2]: 0.2083
O=C1C(=O)N(Cc2ccc(Cl)c(Cl)c2)c2ccccc21 [apoptosis-activator-II] | 0.07557 | 0.02708 | 0.1037 | −0.1455 | −0.1886 | TNBCType train [2, 21]: MSL
COc1ccc(C2CNC(=O)NC2)cc1O[C@H]1C[C@@H]2CC[C@H]1C2 [atizoram] |  |  | −0.0276 | 0.01206 | −0.09365 | DTIO Corr test [1, 12]: 0.000749; DTIO Corr train [1, 13]: −0.04268; TNBCType train [2, 17]: MSL
Cc1occc(=O)c1[O-].Cc1occc(=O)c1[O-].[O]=[V+2] [bis(maltolato)oxo-vanadium(IV)] | 0.09031 | 0.1485 | 0.04745 | −0.1743 | −0.04621 | DTIO Corr test [1, 5]: 0.09031; DTIO Corr train [1, 6]: 0.1485
CCCC[C@H](NC(C)=O)C(=O)N[C@H]1CC(=O)NCCCC[C@@H](C(=O)O)NC(=O)[C@H](Cc2c[nH]c3ccccc23)NC(=O)[C@H](CCCN=C(N)N)NC(=O)[C@@H](Cc2ccccc2)NC(=O)[C@H](Cc2cnc[nH]2)NC1=O [bremelanotide] | −0.06366 | −0.07952 | −0.04735 | 0.07264 | −0.04913 | 
CCCCC1OC(=O)c2ccccc21 (stereo not drawn) [butylphthalide] | −0.1082 | 0.01178 | −0.03693 | −0.03289 | −0.02003 | TNBCType train [2, 21]: MSL
COc1ccc(Nc2nccc(NCCO)n2)cc1 [cardiogenol-c] |  |  | −0.05174 | −0.01984 | −0.00925 | DTIO Corr test [1, 18]: −0.07629; DTIO Corr train [1, 19]: 0.01043; TNBCType train [2, 20]: MSL
CO/N=C(\C(=O)N[C@@H]1C(=O)N2C(C(=O)OCOC(=O)C(C)(C)C)=C(C)CS[C@H]12)c1csc(N)n1 [cefetamet-pivoxil] | −0.06679 | −0.1217 |  |  |  | IM Corr test [2, 9]: −0.01246; M Corr test [2, 10]: 0.001642; MSL Corr test [2, 11]: −0.041
CC(=O)N[C@H](Cc1ccc2ccccc2c1)C(=O)N[C@H](Cc1ccc(Cl)cc1)C(=O)N[C@H](Cc1cccnc1)C(=O)N[C@@H](CO)C(=O)N[C@@H](Cc1ccc(O)cc1)C(=O)N[C@H](CCCNC(N)=O)C(=O)N[C@@H](CC(C)C)C(=O)N[C@@H](CCCNC(=N)N)C(=O)N1CCC[C@H]1C(=O)N[C@H](C)C(N)=O [cetrorelix] (Ac-[d2Nal][dPhe(4-Cl)][d3Pal]SY[dCit]LRP[dA]-NH2) |  |  | −0.1828 | −0.05533 | −0.07051 | DTIO Corr test [1, 12]: −0.1344; DTIO Corr train [1, 13]: 0.03723; TNBCType train [2, 17]: MSL

— patent publication US20250140406A1, “CLASSIFYING TUMORS AND PREDICTING RESPONSIVENESS” (Oncocyte Corporation, priority 2022, published 2025)
